Results taken from patent US11939312B2, “Enantiomeric entactogen compositions and their use” (Arcadia Medicine, Inc., priority 2021, dated 2024).
Where two headings read alike, the source gives them in different places.

Legend:
[1] = Maximum recommended starting dose (MRSD); settings: expected value
[2] = Calculated human equivalent dose (HED) of the NOAEL; settings: for Human Equivalent Dose (HED): NOAEL (human), total dose / Human Equivalent Dose (HED): neurotoxicology NOAEL (human), total dose: assuming a 60 kg human; for NOAEL: human
[3] = p.o. in rat (single housing for SR(±)MDMA); cited from earlier work
[4] = cited from earlier work
[5] = repeated administration, 50 mg/kg bw, mice (Curry 2018); cited from earlier work
[6] = rodent models, doses far above allometrically-scaled clinical doses (Curry 2018); cited from earlier work
[7] = Subjective report of R-MDMA HCL (Example 11); settings: oral 250 (±) 10 mg
Method: Purpose: To determine the physiological and subjective effects of the hydrochloride salt of R-MDMA (oral administration, 250 (±) 10 mg), supplemented with acetyl-L-carnitine (ALCAR), alpha lipoic acid (ALA), ascorbate to reduce or prevent neurotoxicity.

[8] = rat, p.o., cited from earlier work
[9] = dog, female and male, p.o.; cited from earlier work
[10] = cited from earlier work; remark: listed apart in the source
[11] = doses of 100-125 mg; cited from earlier work
[12] = brain imaging studies, 100 mg, healthy volunteers

CN[C@@H](C)Cc1ccc2c(c1)OCO2 [S(+)MDMA, (S)-1-(1,3-Benzodioxol-5-yl)-N-methylpropan-2-amine]
Expected MSRD [1]: 150 mg | Human Equivalent Dose (HED): NOAEL (human), total dose [2]: <2080 mg | Human Equivalent Dose (HED): neurotoxicology NOAEL (human), total dose [2]: 342.9 mg* | NOAEL [2]: 6 mg/kg

CN[C@H](C)Cc1ccc2c(c1)OCO2 [R-MDMA, (R)-1-(1,3-Benzodioxol-5-yl)-N-methyl-propan-2-amine]
No adverse effect level (NOAEL) [3]: NOAEL: >200 mg/kg | AUC in comparison to S-MDMA ([4]; Fallon 1999, Fitzgerald 1990): increased AUC | half-life in comparison to S-MDMA ([4]; Fallon 1999, Fitzgerald 1990): longer half-life | evidence of neurotoxicity [5]: did not show evidence of neurotoxicity | temperature fluctuations [6]: no significant temperature fluctuations | Expected MSRD [1]: >300 mg: | hyperthermia or hypothermia [7]: No noticeable hyperthermia or hypothermia | jaw clenching [7]: No incidence of jaw clenching | onset of noticeable effects ([7]; Subject A): around 40 minutes | time of peak of the experience ([7]; Subject A): around two hours after ingestion | blood pressure ([7]; monitor of low precision, result inconclusive): increased for a short period | heart rate ([7]; short period, from 85 resting): 115-125 | Human Equivalent Dose (HED): NOAEL (human), total dose [2]: >4100 mg | Human Equivalent Dose (HED): neurotoxicology NOAEL (human), total dose [2]: 450 mg* | NOAEL [2]: 7.4 mg/kg

CNC(C)Cc1ccc2c(c1)OCO2 (racemic) [racemic MDMA, 3,4-methylenedioxymethamphetamine]
Neurotoxicology NOAEL ([8]; female): 25 mg/kg/week p.o1 | Neurotoxicology NOAEL ([8]; male): 20 mg/kg/week p.o1. | Neurotoxicology NOAEL [9]: 4 mg/kg/week p.o | onset of subjective effects ([10]; Harris 2002): approximately 45 mins | time of peak subjective effects ([10]; Harris 2002): 1.5 to 2 h | time to decrease to baseline values ([10]; Harris 2002): 5 to 6 h | duration of subjective effects [10, 12]: approximately 4.5 hours | time of peak subjective effects [10, 12]: 1.67 h | duration of effects ([10]; one dose): 4 to 5 h | time of peak drug effects ([10]; patients with PTSD (Mithoefer 2013)): 2 to 5 h | onset of action ([10]; patients with PTSD, after the initial dose (Mithoefer 2013)): 45 to 75 min | duration of effects ([10]; with the booster dose): 5 to 6 h | increase in blood pressure (diastolic) [11]: 14.4-25 mmg | increase in heart rate [11]: 26-30 bpm | No adverse effect level (NOAEL) [3]: NOAEL: 100 mg/kg | time to peak plasma concentration ([4]; doses 100-125 mg, humans): 2 to 3 h | elimination half-life ([4]; similar for doses 50-125 mg): 7 to 9 h | Human Equivalent Dose (HED): NOAEL (human), total dose [2]: 2080 mg | Human Equivalent Dose (HED): neurotoxicology NOAEL (human), total dose [2]: 342.9 mg* | Human Equivalent Dose (HED): NOAEL (human) ([2]; calculated from NOAEL): 34 mg/kg → | Human Equivalent Dose (HED): neurotoxicology NOAEL (human) ([2]; calculated from neurotoxicology NOAEL): NOAEL (human): 6 mg/kg
